Measured values as given in PubChem BioAssay AID1919010 (Molecular Pharmacology Branch, DTP, NCI, 2023).

Test system: Hs578T complex spheroid growth, percent test/control
Assay: Anticancer human tumor Hs578T cell line growth inhibition [AhR];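 further: luminescent viability signal as a proxy for spheroid growth; spheroids exposed to agents for one week after three days of growth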
Details: for IC50: curve of first compound; for viability, T/C: stronger effect = lower value
Summary of the method: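 Agents were dosed in half-log steps down from roughly clinical Cmax, or from 10 microM where Cmax was unknown, alone and with AhR antagonists. Read-out: percent test/control growth of tumor spheroids containing HUVEC and MSC stromal cells.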

[1] = second compound 0.1 µM, first compound 0.0316 µM
[2] = second compound 0.1 µM, first compound 0.1 µM
[3] = second compound 0.1 µM, first compound 0.316 µM
[4] = second compound 0.1 µM, first compound 1 µM
[5] = second compound 0.1 µM, first compound 3.16 µM
[6] = second compound 0.1 µM, first compound 10 µM
[7] = second compound 0.316 µM, first compound 0.0316 µM
[8] = second compound 0.316 µM, first compound 0.1 µM
[9] = second compound 0.316 µM, first compound 0.316 µM
[10] = second compound 0.316 µM, first compound 1 µM
[11] = second compound 0.316 µM, first compound 3.16 µM
[12] = second compound 0.316 µM, first compound 10 µM
[13] = second compound 1 µM, first compound 0.0316 µM
[14] = second compound 1 µM, first compound 0.1 µM
[15] = second compound 1 µM, first compound 0.316 µM
[16] = second compound 1 µM, first compound 1 µM
[17] = second compound 1 µM, first compound 3.16 µM
[18] = second compound 1 µM, first compound 10 µM
[19] = second compound 3.16 µM, first compound 0.0316 µM
[20] = second compound 3.16 µM, first compound 0.1 µM
[21] = second compound 3.16 µM, first compound 0.316 µM
[22] = second compound 3.16 µM, first compound 1 µM
[23] = second compound 3.16 µM, first compound 3.16 µM
[24] = second compound 3.16 µM, first compound 10 µM
[25] = second compound 10 µM, first compound 0.0316 µM
[26] = second compound 10 µM, first compound 0.1 µM
[27] = second compound 10 µM, first compound 0.316 µM
[28] = second compound 10 µM, first compound 1 µM
[29] = second compound 10 µM, first compound 3.16 µM
[30] = second compound 10 µM, first compound 10 µM

CC(C)CC(NC(=O)C(Cc1ccccc1)NC(=O)c1cnccn1)B(O)O (stereo not given) + Cc1ccccc1N=Nc1ccc(NC(=O)c2ccnn2C)c(C)c1
IC50 (second compound 0.1 µM): 5.01 nM
IC50 (second compound 0.316 µM): 4.98 nM
IC50 (second compound 1 µM): 5.47 nM
IC50 (second compound 3.16 µM): 4.53 nM
IC50 (second compound 10 µM): 3.14 nM
viability, T/C (second compound 0.1 µM, first compound 0.000949 µM): 107%
viability, T/C (second compound 0.1 µM, first compound 0.003 µM): 80.8%
viability, T/C (second compound 0.1 µM, first compound 0.00949 µM): 11.7%
viability, T/C (second compound 0.1 µM, first compound 0.03 µM): 0.3%
viability, T/C (second compound 0.1 µM, first compound 0.0949 µM): 0.81%
viability, T/C (second compound 0.1 µM, first compound 0.3 µM): 0.36%
viability, T/C (second compound 0.316 µM, first compound 0.000949 µM): 94.6%
viability, T/C (second compound 0.316 µM, first compound 0.003 µM): 78.1%
viability, T/C (second compound 0.316 µM, first compound 0.00949 µM): 14.1%
viability, T/C (second compound 0.316 µM, first compound 0.03 µM): 0.31%
viability, T/C (second compound 0.316 µM, first compound 0.0949 µM): 0.28%
viability, T/C (second compound 0.316 µM, first compound 0.3 µM): 0.33%
viability, T/C (second compound 1 µM, first compound 0.000949 µM): 98.2%
viability, T/C (second compound 1 µM, first compound 0.003 µM): 86.1%
viability, T/C (second compound 1 µM, first compound 0.00949 µM): 16.9%
viability, T/C (second compound 1 µM, first compound 0.03 µM): 0.65%
viability, T/C (second compound 1 µM, first compound 0.0949 µM): 0.44%
viability, T/C (second compound 1 µM, first compound 0.3 µM): 1.31%
viability, T/C (second compound 3.16 µM, first compound 0.000949 µM): 88.6%
viability, T/C (second compound 3.16 µM, first compound 0.003 µM): 68.7%
viability, T/C (second compound 3.16 µM, first compound 0.00949 µM): 16.6%
viability, T/C (second compound 3.16 µM, first compound 0.03 µM): 0.34%
viability, T/C (second compound 3.16 µM, first compound 0.0949 µM): 0.39%
viability, T/C (second compound 3.16 µM, first compound 0.3 µM): 0.32%
viability, T/C (second compound 10 µM, first compound 0.000949 µM): 62.1%
viability, T/C (second compound 10 µM, first compound 0.003 µM): 51.2%
viability, T/C (second compound 10 µM, first compound 0.00949 µM): 16.6%
viability, T/C (second compound 10 µM, first compound 0.03 µM): 0.45%
viability, T/C (second compound 10 µM, first compound 0.0949 µM): 0.83%
viability, T/C (second compound 10 µM, first compound 0.3 µM): 0.53%

COc1cc(Nc2ncc3c(n2)-c2ccc(Cl)cc2C(c2c(F)cccc2OC)=NC3)ccc1C(=O)O + Cc1ccccc1N=Nc1ccc(NC(=O)c2ccnn2C)c(C)c1
IC50 (second compound 0.1 µM): 6120 nM
IC50 (second compound 0.316 µM): 6760 nM
IC50 (second compound 1 µM): 7910 nM
IC50 (second compound 3.16 µM): > 10000 nM
IC50 (second compound 10 µM): 5670 nM
viability, T/C [1]: 88.2%
viability, T/C [2]: 91.4%
viability, T/C [3]: 78%
viability, T/C [4]: 77.5%
viability, T/C [5]: 71.9%
viability, T/C [6]: 35.4%
viability, T/C [7]: 85%
viability, T/C [8]: 81.7%
viability, T/C [9]: 91.8%
viability, T/C [10]: 79.4%
viability, T/C [11]: 67.9%
viability, T/C [12]: 40.9%
viability, T/C [13]: 86%
viability, T/C [14]: 75%
viability, T/C [15]: 92.9%
viability, T/C [16]: 82.3%
viability, T/C [17]: 73.2%
viability, T/C [18]: 44%
viability, T/C [19]: 71.5%
viability, T/C [20]: 83.1%
viability, T/C [21]: 85.1%
viability, T/C [22]: 73.8%
viability, T/C [23]: 66.7%
viability, T/C [24]: 50.1%
viability, T/C [25]: 68.4%
viability, T/C [26]: 64.2%
viability, T/C [27]: 68.3%
viability, T/C [28]: 63.9%
viability, T/C [29]: 62.5%
viability, T/C [30]: 38.2%

NS(=O)(=O)OCC1CC(n2ccc3c(NC4CCc5ccccc54)ncnc32)CC1O (stereo not given) + Cc1ccccc1N=Nc1ccc(NC(=O)c2ccnn2C)c(C)c1
IC50 (second compound 0.1 µM): 965 nM
IC50 (second compound 0.316 µM): 1470 nM
IC50 (second compound 1 µM): 1520 nM
IC50 (second compound 3.16 µM): 862 nM
IC50 (second compound 10 µM): 105 nM
viability, T/C [1]: 104%
viability, T/C [2]: 82.5%
viability, T/C [3]: 78.1%
viability, T/C [4]: 45.4%
viability, T/C [5]: 34.6%
viability, T/C [6]: 30.2%
viability, T/C [7]: 108%
viability, T/C [8]: 78.2%
viability, T/C [9]: 71.2%
viability, T/C [10]: 59%
viability, T/C [11]: 36.5%
viability, T/C [12]: 33.7%
viability, T/C [13]: 97.8%
viability, T/C [14]: 74.8%
viability, T/C [15]: 83.1%
viability, T/C [16]: 57.7%
viability, T/C [17]: 35.3%
viability, T/C [18]: 34.7%
viability, T/C [19]: 94.9%
viability, T/C [20]: 71%
viability, T/C [21]: 67.9%
viability, T/C [22]: 45.5%
viability, T/C [23]: 36.5%
viability, T/C [24]: 28%
viability, T/C [25]: 59.4%
viability, T/C [26]: 47.9%
viability, T/C [27]: 43.8%
viability, T/C [28]: 37.5%
viability, T/C [29]: 30.2%
viability, T/C [30]: 25.8%

O=C(C=Cc1cccc(S(=O)(=O)Nc2ccccc2)c1)NO + Cc1ccccc1N=Nc1ccc(NC(=O)c2ccnn2C)c(C)c1
IC50 (second compound 0.1 µM): 1850 nM
IC50 (second compound 0.316 µM): 1780 nM
IC50 (second compound 1 µM): 1860 nM
IC50 (second compound 3.16 µM): 1770 nM
IC50 (second compound 10 µM): 1500 nM
viability, T/C [1]: 99%
viability, T/C [2]: 107%
viability, T/C [3]: 94%
viability, T/C [4]: 77.5%
viability, T/C [5]: 26.2%
viability, T/C [6]: 0.74%
viability, T/C [7]: 105%
viability, T/C [8]: 108%
viability, T/C [9]: 94%
viability, T/C [10]: 74%
viability, T/C [11]: 26.9%
viability, T/C [12]: 0.66%
viability, T/C [13]: 109%
viability, T/C [14]: 104%
viability, T/C [15]: 96.5%
viability, T/C [16]: 77.6%
viability, T/C [17]: 26.9%
viability, T/C [18]: 0.82%
viability, T/C [19]: 93.5%
viability, T/C [20]: 87.2%
viability, T/C [21]: 98.5%
viability, T/C [22]: 71.9%
viability, T/C [23]: 26.3%
viability, T/C [24]: 1.13%
viability, T/C [25]: 64.2%
viability, T/C [26]: 67.2%
viability, T/C [27]: 64%
viability, T/C [28]: 63.2%
viability, T/C [29]: 25.9%
viability, T/C [30]: 1.32%
